Consider 91 molecules from a melting point compilation (Tetko et al.; mined from patent text by program, amines drawn as free bases though some values may be those of a salt).

For the molecule `CC(F)(F)c1cccc(C[C@@H](C(=O)O)[C@@H](O)c2ccc(F)cc2)c1` (racemic), the melting point lay within 132 to 133 °C.
For the molecule `COc1ccccc1N1CCN(CC(O)COc2ccccc2C=C=O)CC1` (stereo unspecified), the melting point was 116 to 118 °C.
In the case of `Fc1ccc(Cn2c(NC3CCN(CCc4ccccn4)CC3)nc3ccccc32)cc1` it was 133 °C.
`C#CC1(O)CCC2(C)C(CCC3C2CCC2(C)C(C(=O)CO)CCC32)C1` (stereo unspecified) came in with a melting point of 156 to 157 °C.
For `O=C(O)Cc1ccc(Cl)cc1[N+](=O)[O-]`, the melting point was 156 to 159 °C.
For `O=C(NCCc1ccc(F)cc1)c1ccc(S(=O)(=O)Nc2ccccc2C(=O)O)cc1`, the melting point fell in the range of 85 to 86 °C.
The molecule `O=C(O)c1cc(S(=O)(=O)N2CCC(CCl)CC2)ccc1Cl` displayed a melting point of 175 to 177 °C.
In the case of `c1cnc(Sc2cccc3cccnc23)nc1`, the melting point lay in the range of 165 to 168 °C.
`CN1C2=C(CSC2)C(=O)Nc2cc(Cl)c(Cl)cc21` displayed a melting point of 281 to 283 °C.
In the case of `N#Cc1ccc2cc(CCCCc3cc4ccc(C#N)cc4o3)oc2c1`, the melting point was 215 to 217 °C.
`CC1(O)CCC2(C)C(CCC3C2CCC2(C)C(c4cn5ccccc5n4)CCC32)C1` (stereo unspecified) registered a melting point of 225 to 226 °C.
`NS(=O)(=O)c1cccc(S(=O)(=O)NC2CCC2)c1` gave a melting point of 140 to 143 °C.
Take `Cn1cc(-c2cccc(N3Cc4cc(C(C)(C)C)ccc4C3=O)c2CO)cc(Nc2ccn(C3CC3)n2)c1=O`: the melting point lay in the range of 173 to 175 °C.
In the case of `CNC(=O)[C@@H]1CC[C@H](C(=O)O)N1Cc1ccccc1` (relative stereo) it was 190 to 192 °C.
In turn, `CN(C(=O)c1ccc(Cn2ccc3ncnc-3c2)o1)C1CCCCC1` showed a melting point of 189 to 190 °C.
As for `C[C@H](NC(=O)OC(C)(C)C)C(=O)CCl`, the melting point was 64 to 66.5 °C.
As to `CCCCCC(CCn1ccnc1)Sc1ccc(C(C)(C)C)cc1` (stereo unspecified), the melting point is 192 to 193 °C.
For the molecule `Cc1oc(-c2ccc(C(F)(F)F)cc2)nc1CCl`, the melting point was in the range of 84 to 85 °C.
Regarding `O=C(O)Cc1c(Cl)nc(-c2ccc([N+](=O)[O-])cc2)n1Cc1ccccc1`, the melting point was 180 to 183 °C.
As to `Cc1c(F)c(F)c(F)c2c1c(=O)c(C(=O)O)cn2-c1cccs1`, the melting point is 221 to 222 °C.
As to `Cc1cc(C)nc(NCC(O)CO)n1` (stereo unspecified), the melting point was 124 to 127 °C.
Molecule `CCOCCOC(=O)C(=O)Nc1nc(-c2cc3ccccc3oc2=O)cs1` had a melting point of 156 to 157 °C.
`COc1cc(Nc2c(C#N)cnc3cc(-c4ccc5ccccc5c4)ccc23)c(Cl)cc1Cl` registered a melting point of 243 to 244 °C.
For the molecule `O=C(CCl)COc1c(Cl)cc(Cl)cc1Cl`, the melting point came to 55 °C.
With `O=C/C=C/c1cc2cc(Cl)ccc2[nH]1`, the melting point was in the range of 207 to 209 °C.
As for `CCOC(=O)c1cn(C)c2nn(C)cc2c1=O`, the melting point is 235 to 240 °C.
In the case of `Nc1cccc(Nc2ncc(-c3cccnc3)s2)c1`, the melting point is 162 °C.
Next, `CCCCCCCCc1ccc(CCC(CO)(CO)[N+](=O)[O-])cc1`: 80 to 82 °C; `CC(C)(C)c1ccc(COCCCCCCNC(=O)c2cc(-c3cccc(C(F)(F)F)c3)c(OCC(=O)O)c(-c3cccc(C(F)(F)F)c3)c2)cc1`: 156 to 158 °C.
In the case of `CC(=O)NC[C@H]1CN(c2ccc3c(c2)OCC(C)N3)C(=O)O1` (stereo partly specified) it was 163 to 165 °C; in that of `Clc1ccc(NCCCNCC2CCc3ccccc3O2)nn1` (stereo unspecified), 108 °C.
With `CCOC(=O)c1cn(C2CC2)c2nc3cc(F)c(F)cc3cc2c1=O`, the melting point was 230 °C.
`COC(=O)c1c(Cl)nc2cc3c(cc2c1CCl)OCCO3` yielded a melting point of 130 to 132 °C.
`COc1ccc(-c2cc(-c3ccoc3)c(C(=O)NCc3ccc(C(=O)NO)cc3)[nH]2)cc1` displayed a melting point of 189 to 190 °C.
Molecule `O=[N+]([O-])c1ccc(C2CCN(c3ccncc3)CC2)cc1` yielded a melting point of 173 to 174 °C.
`Cc1nn(C)c2c1c1oc(=O)c(Sc3ccccc3)c(O)c1c(=O)n2-c1ccc(OC(F)(F)F)cc1` displayed a melting point of 136 to 139 °C.
In the case of `CCOC(=O)c1cnoc1-c1ccc(Cl)c(F)c1` it was 76 to 77 °C.
In the case of `CCC(C#N)=C1CCN(c2ccc(N3C[C@H](CNC(=O)CBr)OC3=O)cc2F)CC1` it was 200 to 203 °C.
Molecule `Cc1ccc(-c2ccccc2)cc1CNC(=O)N(C)N` came in with a melting point of 91.6 °C.
Take `CN1CCSC1=NC(=Nc1ccccc1)N1CCCC1`: the melting point fell in the range of 160 to 162 °C.
`O=c1c2nc(Br)n(Cc3ccccc3)c2ncn1Cc1ccccc1` registered a melting point of 161 to 162 °C.
For `O=c1c2n[nH]c3ccc(Cl)cc3c-2nn1-c1ccccc1`, the melting point was > 280 °C.
On to `COc1ccc(-c2ccc(Br)cc2N)cc1`, for which the melting point was in the range of 128 to 130 °C.
In the case of `CC(=N)NC(=O)Nc1ccc(C)cc1` it was 210 to 212 °C; in that of `NC(=O)c1cn(-c2ccc(F)cc2)c2cc(Cl)ccc2c1=O`, 294 to 296 °C; in that of `Cc1ccc(S(=O)(=O)OCCCC2(C)NC(=O)NC2=O)cc1` (stereo unspecified), 126 to 127 °C.
`O=C1CC2SCCCN12` (stereo unspecified) displayed a melting point of 145 to 147 °C.
The molecule `C=CCSC(Cc1ccc(Cl)cc1Cl)n1ccnc1` (stereo unspecified) returned a melting point of 97 to 102 °C.
Next, `COc1ccccc1N(CC(=O)N(C)c1ccccc1)C(=O)CN1C(=O)c2ccccc2C1=O`: 199 °C; `Cc1noc(NS(=O)(=O)c2ccsc2COc2ccc3c(c2Cl)OCO3)c1Br`: 152 to 154 °C; `Cc1c(C(=O)Nc2ccc(N3CCN(C4CCSCC4)CC3)c(C#N)c2)cnn1-c1ccc(Cl)cc1`: 281 °C.
`O=C(O)C1c2ccccc2COc2ccc(Cl)cc21` (stereo unspecified) had a melting point of 182 to 183 °C.
In the case of `O=Cc1ccc(C(=O)Nc2ccncc2)cc1` it was 161 °C.
`O=C(N[C@@H](Cc1ccccc1)[C@H]1CO1)OCc1ccccc1` had a melting point of 102 to 103 °C.
Next, `CN(C)c1cccc(C(=C2CN(C(c3ccccc3)c3ccccc3)C2)S(C)(=O)=O)c1`: 176 °C; `COC(=O)c1nc(C)ccc1OC`: 55 to 57 °C.
`Cc1cc2c(cc1C)C1(O)C(=O)c3ccccc3C1(O)O2` (stereo unspecified) yielded a melting point of 198 to 200 °C.
For `CC(C)(O)c1cnn2c(-c3cccc(-c4ccncc4)c3F)cnc2n1`, the melting point fell in the range of 221 to 223 °C.
Turning to `O=C1COc2cc(NC(=O)C(=O)N3CCC(CCc4ccccc4)CC3)ccc2N1`, the melting point was in the range of 128 to 132 °C.
In the case of `CC(C)(C)NCC(O)c1cc(Cl)c(N)c(C#N)c1` (stereo unspecified) it was 125 to 133 °C; in that of `Cc1cn(COC(COCc2ccccc2)COCc2ccccc2)c(=O)[nH]c1=O`, 96 to 98 °C; in that of `CN1CCC(c2cnc3ccc(C(=O)Nc4ccc(F)cc4)[nH]c2-3)CC1`, 114 to 116 °C.
In turn, `COc1cnnc(Oc2ccnc(OC(F)F)c2)c1` gave a melting point of 119 to 120 °C.
Molecule `Cc1cc(-c2ncn3c(C(F)(F)F)cc(-c4ccc(Cl)cc4)nc23)ccn1` had a melting point of 232 °C.
Next, `CN(C)CCc1cccc(OCCN2C(=O)c3ccccc3C2=O)c1`: 84 to 85 °C.
Next, `COc1ccc2c(c1)SSSSS2`: 97 to 98 °C; `COc1ccc(C2(C)CCC(=O)O2)cc1OC` (stereo unspecified): 71.2 °C.
In turn, `COc1cccc2c1CCCC2=NO` showed a melting point of 158 to 159 °C.
In turn, `Cc1cc2c(cc1C(F)(F)F)NC(=O)CC(c1cccc(-c3nc(CO)sc3C)c1)=N2` displayed a melting point of 214 to 217 °C.
For the molecule `CCOC(=O)c1cc(OC)c(C)cc1N`, the melting point lay in the range of 60 to 62 °C.
As for `CCOC(=O)C(=O)Nc1ccc2cccc([N+](=O)[O-])c2c1NC(=O)C(=O)OCC`, the melting point is 173 to 175 °C.
In the case of `COc1ccc(C(=C/C=C/C(=O)Oc2ccc([N+](=O)[O-])cc2)c2ccc(OC)cc2)cc1` it was 121 to 123 °C.
In turn, `CCCNC(=O)NS(=O)(=O)c1ccccc1I` gave a melting point of 211 to 212 °C.
The molecule `O=C(Nc1nccs1)/C(=C/C1CCCC1)c1ccc(Cl)c(Cl)c1` showed a melting point of 57 to 59 °C.
For the molecule `COc1ccc2cc(C3=CC4CCC(C3)N4)ccc2c1` (stereo unspecified), the melting point worked out at 138 °C.
Next, `CC12CCC3(CC1CCC1C2CCC2(C)C(N)C(O)CC12)OCCO3` (stereo unspecified): 254 to 258 °C; `CCN(c1ccc(C(F)(F)F)cc1)C1CCN(c2ccc(OC[C@H]3CCn4cc([N+](=O)[O-])nc4O3)cc2)CC1`: 206 °C.
For `CCOc1nc(NCCCCC2CC(C)(C)NC(C)(C)C2)nc(NCCCCC2CC(C)(C)NC(C)(C)C2)n1`, the melting point was in the range of 95 to 104 °C.
Molecule `COc1cc(OC)nc(N(C(=S)Oc2ccccc2)C(=S)Oc2ccccc2)n1` gave a melting point of 127 to 128 °C.
Turning to `CCCn1cnc2nc(-c3ccc(Cl)cc3)nn2c1=S`, the melting point fell in the range of 214 to 216 °C.
In the case of `Cn1c(C(F)(F)F)cc(=O)n(-c2ccc3snc(-c4nc5ccccc5[nH]c4=O)c3c2)c1=O`, the melting point was > 250 °C.
Consider `Cc1ccc2c(c1)S(=O)(=O)c1cc(C)ccc1O2`, for which the melting point lay in the range of 175 to 176 °C.
Next, `N#CN=C(NCc1ccccc1)Nc1cccnc1`: 189 to 190 °C.
`O=C(CCCCC1SCC2NC(=O)NC21)NCCOCCOCCN1C(=O)C=C(Br)C1=O` (stereo unspecified) yielded a melting point of 95 to 98 °C.
Next, `CC(C)Oc1ccc(CCCOc2cc(CCC(=O)O)n(C)n2)c(OCc2ccc(Cl)cc2Cl)c1`: 125 to 127 °C; `O=C(O)Cc1sc(NC(=O)c2cc(Br)ccc2O)nc1-c1ccccc1`: 284 to 286 °C.
On to `Cc1nc(-c2ccc(O)cc2)cc(-c2c(Cl)ccc(Cl)c2Cl)c1C#N`, for which the melting point lay within 191 to 195 °C.
Next, `O=Cc1cnn2c(-c3cccc(C(F)(F)F)c3)ccnc12`: 168 to 170 °C; `Cc1cc2c(cc1Br)C(O)(c1ccccn1)CC(C)(C)CO2` (stereo unspecified): 147 °C; `Cc1sc2c(Cl)c(Cl)c(O)cc2c1C`: 143 to 144 °C.
Next, `COc1ccc(-n2c(-c3ccc(Cl)cc3Cl)nc(C(=O)O)c2C)cc1`: 189 to 191 °C.

The melting point is the temperature, or range, at which the solid turns liquid.
